Measurements: ChEMBL document CHEMBL3297661, “1-Substituted-5-[(3,5-dinitrobenzyl)sulfanyl]-1H-tetrazoles and their isosteric analogs: A new class of selective antitubercular agents active against drug-susceptible and multidrug-resistant mycobacteria” (Eur J Med Chem, 2014)
≈ marks a conversion by molar mass, not a printed value.

Assays:
Format in all cases: functional
[1] = test system: Mycobacterium tuberculosis; test: Antimycobacterial activity against Mycobacterium tuberculosis CNCTC My 331/88 after 14 days by micromethod; settings: CNCTC My 331/88, 336 h
[2] = test system: Mycobacterium tuberculosis; test: Antimycobacterial activity against Mycobacterium tuberculosis CNCTC My 331/88 after 21 days by micromethod; settings: CNCTC My 331/88, 504 h
Mycobacterium avium [3] = test: Antimycobacterial activity against Mycobacterium avium CNCTC My 330/88 after 14 days by micromethod; settings: CNCTC My 330/88, 336 h
Mycobacterium avium [4] = test: Antimycobacterial activity against Mycobacterium avium CNCTC My 330/88 after 21 days by micromethod; settings: CNCTC My 330/88, 504 h
Mycobacterium kansasii [5] = test: Antimycobacterial activity against Mycobacterium kansasii CNCTC My 235/80 after 7 days by micromethod; settings: CNCTC My 235/80, 168 h
Mycobacterium kansasii [6] = test: Antimycobacterial activity against Mycobacterium kansasii CNCTC My 235/80 after 14 days by micromethod; settings: CNCTC My 235/80, 336 h
Mycobacterium kansasii [7] = test: Antimycobacterial activity against Mycobacterium kansasii CNCTC My 235/80 after 21 days by micromethod; settings: CNCTC My 235/80, 504 h
Mycobacterium kansasii [8] = test: Antimycobacterial activity against Mycobacterium kansasii 6509/96 after 7 days by micromethod; settings: 6509/96, 168 h
Mycobacterium kansasii [9] = test: Antimycobacterial activity against Mycobacterium kansasii 6509/96 after 14 days by micromethod; settings: 6509/96, 336 h
Mycobacterium kansasii [10] = test: Antimycobacterial activity against Mycobacterium kansasii 6509/96 after 21 days by micromethod; settings: 6509/96, 504 h

Row | SMILES | MIC [1] | MIC [2] | MIC (Mycobacterium avium [3]) | MIC (Mycobacterium avium [4]) | MIC (Mycobacterium kansasii [5]) | MIC (Mycobacterium kansasii [6]) | MIC (Mycobacterium kansasii [7]) | MIC (Mycobacterium kansasii [8]) | MIC (Mycobacterium kansasii [9]) | MIC (Mycobacterium kansasii [10])
1 | O=[N+]([O-])c1cc(CSc2nnnn2-c2ccccc2)cc([N+](=O)[O-])c1 | 4 µM (≈ 1.43 µg/mL) | 4 µM (≈ 1.43 µg/mL) | 62 µM (≈ 22.2 µg/mL) | 62 µM (≈ 22.2 µg/mL) | 2 µM (≈ 0.717 µg/mL) | 4 µM (≈ 1.43 µg/mL) | 16 µM (≈ 5.73 µg/mL) | 2 µM (≈ 0.717 µg/mL) | 2 µM (≈ 0.717 µg/mL) | 4 µM (≈ 1.43 µg/mL)
2 | c1ccc(C[Se]c2nnnn2C2CCCCC2)cc1 | 125 µM (≈ 40.2 µg/mL) | 125 µM (≈ 40.2 µg/mL) | 125 µM (≈ 40.2 µg/mL) | 125 µM (≈ 40.2 µg/mL) | 8 µM (≈ 2.57 µg/mL) | 32 µM (≈ 10.3 µg/mL) | 32 µM (≈ 10.3 µg/mL) | 62 µM (≈ 19.9 µg/mL) | 250 µM (≈ 80.3 µg/mL) | 500 µM (≈ 161 µg/mL)
3 | CC(=O)SCc1cc([N+](=O)[O-])cc([N+](=O)[O-])c1 | 8 µM (≈ 2.05 µg/mL) | 16 µM (≈ 4.1 µg/mL) | 62 µM (≈ 15.9 µg/mL) | 125 µM (≈ 32 µg/mL) | 16 µM (≈ 4.1 µg/mL) | 32 µM (≈ 8.2 µg/mL) | 125 µM (≈ 32 µg/mL) | 62 µM (≈ 15.9 µg/mL) | 125 µM (≈ 32 µg/mL) | 500 µM (≈ 128 µg/mL)
4 | O=[N+]([O-])c1cc(COc2nnnn2-c2ccccc2)cc([N+](=O)[O-])c1 | 2 µM (≈ 0.685 µg/mL) | 4 µM (≈ 1.37 µg/mL) | 125 µM (≈ 42.8 µg/mL) | 125 µM (≈ 42.8 µg/mL) | 8 µM (≈ 2.74 µg/mL) | 16 µM (≈ 5.48 µg/mL) | 32 µM (≈ 11 µg/mL) | 8 µM (≈ 2.74 µg/mL) | 16 µM (≈ 5.48 µg/mL) | 32 µM (≈ 11 µg/mL)
5 | Nn1nnnc1SCc1cc([N+](=O)[O-])cc([N+](=O)[O-])c1 | 8 µM (≈ 2.38 µg/mL) | 16 µM (≈ 4.76 µg/mL) | 1000 µM (≈ 297 µg/mL) | 1000 µM (≈ 297 µg/mL) | 8 µM (≈ 2.38 µg/mL) | 32 µM (≈ 9.51 µg/mL) | 32 µM (≈ 9.51 µg/mL) | 16 µM (≈ 4.76 µg/mL) | 32 µM (≈ 9.51 µg/mL) | 32 µM (≈ 9.51 µg/mL)
6 | Cc1ccc(-n2nnnc2SCc2cc([N+](=O)[O-])cc([N+](=O)[O-])c2)cc1C | 500 µM (≈ 193 µg/mL) | 500 µM (≈ 193 µg/mL) | 250 µM (≈ 96.6 µg/mL) | 250 µM (≈ 96.6 µg/mL) | 250 µM (≈ 96.6 µg/mL) | 250 µM (≈ 96.6 µg/mL) | 250 µM (≈ 96.6 µg/mL) | 250 µM (≈ 96.6 µg/mL) | 250 µM (≈ 96.6 µg/mL) | 250 µM (≈ 96.6 µg/mL)
7 | Nc1cc(N)cc(CSc2nnnn2-c2ccccc2)c1 | 250 µM (≈ 74.6 µg/mL) | 500 µM (≈ 149 µg/mL) | 1000 µM (≈ 298 µg/mL) | 1000 µM (≈ 298 µg/mL) | 250 µM (≈ 74.6 µg/mL) | 1000 µM (≈ 298 µg/mL) | 1000 µM (≈ 298 µg/mL) | 250 µM (≈ 74.6 µg/mL) | 1000 µM (≈ 298 µg/mL) | 1000 µM (≈ 298 µg/mL)
8 | O=[N+]([O-])c1cc(CSc2ccccc2)cc([N+](=O)[O-])c1 | 250 µM (≈ 72.6 µg/mL) | 250 µM (≈ 72.6 µg/mL) | 250 µM (≈ 72.6 µg/mL) | 250 µM (≈ 72.6 µg/mL) | 250 µM (≈ 72.6 µg/mL) | 250 µM (≈ 72.6 µg/mL) | 250 µM (≈ 72.6 µg/mL) | 500 µM (≈ 145 µg/mL) | 500 µM (≈ 145 µg/mL) | 500 µM (≈ 145 µg/mL)
9 | COc1ccc(-n2nnnc2S(=O)(=O)Cc2cc([N+](=O)[O-])cc([N+](=O)[O-])c2)cc1 | 8 µM (≈ 3.36 µg/mL) | 8 µM (≈ 3.36 µg/mL) | 125 µM (≈ 52.5 µg/mL) | 125 µM (≈ 52.5 µg/mL) | 125 µM (≈ 52.5 µg/mL) | 250 µM (≈ 105 µg/mL) | 250 µM (≈ 105 µg/mL) | 125 µM (≈ 52.5 µg/mL) | 125 µM (≈ 52.5 µg/mL) | 125 µM (≈ 52.5 µg/mL)
10 | O=[N+]([O-])c1cc(C[Se]c2nnnn2-c2ccc(Br)cc2)cc([N+](=O)[O-])c1 | 2 µM (≈ 0.968 µg/mL) | 2 µM (≈ 0.968 µg/mL) | 125 µM (≈ 60.5 µg/mL) | 125 µM (≈ 60.5 µg/mL) | 2 µM (≈ 0.968 µg/mL) | 4 µM (≈ 1.94 µg/mL) | 4 µM (≈ 1.94 µg/mL) | 2 µM (≈ 0.968 µg/mL) | 4 µM (≈ 1.94 µg/mL) | 8 µM (≈ 3.87 µg/mL)
11 | O=[N+]([O-])c1ccc(CSc2nnnn2-c2ccc([N+](=O)[O-])cc2)cc1 | 250 µM (≈ 89.6 µg/mL) | 250 µM (≈ 89.6 µg/mL) | 250 µM (≈ 89.6 µg/mL) | 250 µM (≈ 89.6 µg/mL) | 250 µM (≈ 89.6 µg/mL) | 250 µM (≈ 89.6 µg/mL) | 250 µM (≈ 89.6 µg/mL) | 250 µM (≈ 89.6 µg/mL) | 250 µM (≈ 89.6 µg/mL) | 250 µM (≈ 89.6 µg/mL)
12 | COc1ccc(-n2nnnc2[S+]([O-])Cc2cc([N+](=O)[O-])cc([N+](=O)[O-])c2)cc1 (stereo not given) | 62 µM (≈ 25.1 µg/mL) | 62 µM (≈ 25.1 µg/mL) | 250 µM (≈ 101 µg/mL) | 250 µM (≈ 101 µg/mL) | 62 µM (≈ 25.1 µg/mL) | 125 µM (≈ 50.5 µg/mL) | 125 µM (≈ 50.5 µg/mL) | 32 µM (≈ 12.9 µg/mL) | 125 µM (≈ 50.5 µg/mL) | 125 µM (≈ 50.5 µg/mL)
13 | O=[N+]([O-])c1cc(COc2nnnn2-c2ccc(Br)cc2)cc([N+](=O)[O-])c1 | 2 µM (≈ 0.842 µg/mL) | 4 µM (≈ 1.68 µg/mL) | 125 µM (≈ 52.6 µg/mL) | 125 µM (≈ 52.6 µg/mL) | 8 µM (≈ 3.37 µg/mL) | 16 µM (≈ 6.74 µg/mL) | 16 µM (≈ 6.74 µg/mL) | 4 µM (≈ 1.68 µg/mL) | 16 µM (≈ 6.74 µg/mL) | 16 µM (≈ 6.74 µg/mL)
14 | O=[N+]([O-])c1cc(C[Se]c2nnnn2-c2ccccc2)cc([N+](=O)[O-])c1 | 8 µM (≈ 3.24 µg/mL) | 8 µM (≈ 3.24 µg/mL) | 32 µM (≈ 13 µg/mL) | 32 µM (≈ 13 µg/mL) | 8 µM (≈ 3.24 µg/mL) | 8 µM (≈ 3.24 µg/mL) | 16 µM (≈ 6.48 µg/mL) | 16 µM (≈ 6.48 µg/mL) | 16 µM (≈ 6.48 µg/mL) | 32 µM (≈ 13 µg/mL)
